≈ marks a conversion by molar mass, not a printed value.
Tests used:
[1] = Existence as mixture or single component by NMR spectra or silica gel TLC with chromatoscanner; assay type: physicochemical
[2] = test system: Lymphocytic leukemia P388; experiment: Antitumor activity against lymphocytic leukemia P388 in mice (Test 1); assay type: in vivo, mice (BDF1); conditions: for T/C: mean survival time treated/control
Protocol: The antitumor activity of FR-900482 substance was determined in experimental tumor system in mice.
Lymphocytic leukemia P388 was implanted intraperitoneally into BDF1 mice at an inoculum size of 1×10^6 cells per mouse. Twenty-four hours after the implantation of tumor cells, graded doses of the FR-900482 substance were administered to mice intraperitoneally. Treatments were once a day on day 1, 2, 3 and 4 after the tumor inoculation. Control animals received intraperitoneal doses of physiological saline solution. The injection volume was 0.2 ml in all experiments. Six mice were used for each experimental group.
Antitumor activity was evaluated by the mean survival time of a group of mice and also expressed by the T/C % value (mean survival time of treated group/mean survival time of control group, ×100).

Ehrlich carcinoma = Ehrlich carcinoma in mice (Test 6); assay type: in vivo, mice (ICR); conditions: 3.2 mg/kg i.p., days 1, 5 and 9; median survival time
From the text: Ehrlich carcinoma (1×10^6 cells), maintained i.p. by serial passage in female ICR mice, implanted i.p. to female ICR mice on day 0, and the test compounds or vehicle were given i.p. to the mice once a day on days 1, 5 and 9.
(§1) Ten mice were used for each test group and twenty mice were used for each vehicle-treated control group.
(§2) Drug efficacy against the ascitic tumors is expressed as percentage of the median survival time of the test group to that of the control group. [formula]

[3] = test system: Bacillus subtilis ATCC 6633; experiment: Antimicrobial activity, serial broth dilution (Test 2), Bacillus subtilis; assay type: cell-based; conditions: ATCC6633, overnight incubation at 37° C.
Protocol: (§3) Antimicrobial activity of the FR-900482 substance against some bacteria was determined by a serial broth dilution method in bouillon media for bacteria. Minimum inhibitory concentrations (MIC) were expressed in terms of μg/ml after overnight incubation at 37° C.

B16 Melanoma = B16 Melanoma in mice (Test 5); assay type: in vivo, mice (BDF1); conditions: 10.0 mg/kg i.p., days 1-9
Protocol: B16 Melanoma (1:10 brei, 0.5 ml), maintained s.c. by serial passage in female C57BL/6 mice, was implanted i.p. to female BDF1 mice on day 0, and the test compounds or vehicle were given i.p. to the mice once a day on days 1-9.
(§4) Ten mice were used for each test group, and twenty mice were used for each vehicle-treated control group.
(§5) Drug efficacy against the ascitic tumors is expressed as percentage of the median (mean) survival time of the test group to that of the control group. [formula] .circle.2 Results

[4] = test system: Pseudomonas aeruginosa NCTC-10490; experiment: Antimicrobial activity, serial broth dilution (Test 2), Pseudomonas aeruginosa; assay type: cell-based; conditions: NCTC10490, overnight incubation at 37° C.
Protocol: as §3

Human MX-1 mammary = Human MX-1 mammary tumor in nude mice (Test 9); assay type: in vivo, human (in BALB/c nu/nu mice); conditions: 10.0 mg/kg i.v., days 11, 15 & 19; evaluation day 27
Protocol: (§6) Human LX-1 lung or MX-1 mammary (each fragment, 2×2×2 mm), maintained s.c. by serial passage in male BALB/c nu/nu mice, was implanted s.c. to male BALB/c nu/nu mice on day 0, and the test compounds or vehicle were given i.v. to the mice once a day on specified days in Table 9.
(§7) Tumor weight was calculated as follows: (Tumor length and width were measured by caliper.)
(§8) Tumor weight (mg)=1/2×a×b^2, where a represents length and b represents width (mm).
(§9) Tumor weights (initial) and (last) were calculated on the first injection day (just before dosing) and on day 21, 27 or 28 (the last evaluation day), respectively.
(§10) Five mice were used for each test group and 5 or 10 mice were used for each vehicle-treated control group.
(§11) Drug efficacy was expressed as percentage of mean tumor weight of the test group to that of the control group. [formula]

AH130 Hepatoma = experiment: in vivo rat ascitic tumor model, AH130 Hepatoma (Test 8); design: species or system rats (Donryu); conditions: 1.0 mg/kg i.p., days 1, 5 and 9; median survival time
From the text: AH130 Hepatoma (1×10^6 cells), maintained i.p. by serial passage in female Donryu rats, was implanted i.p. to female Donryu rats on day 0, and the test compounds or vehicle were given i.p. to the rats once a day on days 1, 5 and 9. Ten rats were used for each test group or vehicle-treated control group.
as §2

Human LX-1 lung = Human LX-1 lung tumor in nude mice (Test 9); assay type: in vivo, human (in BALB/c nu/nu mice); conditions: 18.0 mg/kg i.v., days 12, 16 & 20; evaluation day 28
Protocol: as §6, §7, §8, §9, §10, §11

MM46 Mammary carcinoma = MM46 Mammary carcinoma in mice (Test 6); assay type: in vivo, mice (C3 H/HeN); conditions: 3.2 mg/kg i.p., days 1, 5 and 9; median survival time
From the text: MM46 Mammary carcinoma (1×10^6 cells), maintained i.p. by serial passage in female C3 H/HeN mice, was implanted i.p. to female C3 H/HeN mice on day 0, and the test compounds or vehicle were given i.p. to the mice once a day on days 1, 5 and 9.
as §1, §2

AMC60 Fibrosarcoma = experiment: in vivo rat ascitic tumor model, AMC60 Fibrosarcoma (Test 8); design: species or system rats (ACI/N); conditions: 3.2 mg/kg i.p., days 1, 5 and 9; median survival time
From the text: AMC60 Fibrosarcoma (1×10^6 cells), maintained i.p. by serial passage in female ACI/N rats, was implanted i.p. to female ACI/N rats on day 0, and the test compounds or vehicle were given i.p. to the rats once a day on days 1, 5 and 9. Seven rats were used for each test group or vehicle-treated control group.
as §2

L1210 Leukemia = L1210 Leukemia ascitic tumor in mice (Test 5); assay type: in vivo, mice (BDF1 or CDF1); conditions: 10.0 mg/kg i.p., days 1-9, BDF1 mice
From the text: L1210 Leukemia (1×10^5 cells), maintained i.p. by serial passage in female DBA/2 mice, was implanted i.p. to female BDF1 or CDF1 mice on day 0, and the test compounds or vehicle were given i.p. to the mice once a day on days 1-9.
as §4, §5

[5] = Acute toxicity in ddY mice (Test 3); conditions: mouse, in vivo

## NC(=O)OCC1c2c(O)cc(C=O)cc2N2CC3NC3C1(O)O2 (stereo not shown) [FR-900482 substance, 4-Formyl-6,9-dihydroxy-14-oxa-1,11-diazatetracyclo[7.4.1.0^2,7.0^10,12]tetradeca-2,4,6-trien-8-ylmethyl carbamate]
[1]; around neutral condition
  existence as mixture or single component: mixture of two components
[1]; around pH 1 condition
  existence as mixture or single component: single component
[2]; 1.0 mg/kg i.p., days 1-4
  Mean Survival time: 13.0 days
  T/C: 118%
[2]; 3.2 mg/kg i.p., days 1-4
  Mean Survival time: 14.0 days
  T/C: 127%
[2]; 5.6 mg/kg i.p., days 1-4
  Mean Survival time: 16.0 days
  T/C: 145%
[2]; 10 mg/kg i.p., days 1-4
  Mean Survival time: 24.5 days
  T/C: 223%
[2]; 18 mg/kg i.p., days 1-4
  Mean Survival time: 29.0 days
  T/C: 264%
[2]; doses between 3.2-18 mg/kg i.p.
  increase in life span in mice: significant increase in life span
[2]; i.p., days 1-4
  activity against the leukemia P388: quite active
Ehrlich carcinoma
  T/C: > 270%
[3]
  MIC: 50 µg/mL (≈ 156 µM)
B16 Melanoma
  T/C: 350%
[4]
  MIC: 25 µg/mL (≈ 77.8 µM)
Human MX-1 mammary
  1-T"/C": 100%
AH130 Hepatoma
  T/C: > 429%
Human LX-1 lung
  1-T"/C": 97%
MM46 Mammary carcinoma
  T/C: > 300%
AMC60 Fibrosarcoma
  T/C: > 333%
Solubility; acetone
  Solubility: Insoluble
Solubility; chloroform
  Solubility: Insoluble
Solubility; ethyl acetate
  Solubility: Insoluble
Solubility; methanol
  Solubility: Soluble
Solubility; water
  Solubility: Soluble
L1210 Leukemia
  T/C: > 190%
[5]; ip, intraperitoneal injection
  LD50: 32 mg/kg
[5]; intravenous injection
  LD50: 32 mg/kg

Source: patent US4861774A, “Method of treating tumors using tetracyclo compounds” (priority 1984, dated 1989)
